# Source: patent publication US20130096170A1 (priority 2011, published 2013)
# Read-outs that look alike come from different tables or passages of the source.
# Legend:
# [1] = system: pediatric subjects 2 to <17 years
# [2] = cited from earlier work
# [3] = human, in vivo
# [4] = for CL, Predicted Typical Value / Volume of Distribution, Predicted Typical Value / Weight-Adjusted CL, Predicted Typical Value / Weight-Adjusted V, Predicted Typical Value: model-predicted
# [5] = system: pediatric subjects 12 to <24 months; conditions: in vivo
# [6] = in vivo
# [7] = cited from earlier work; remark: listed apart in the source
# clinical = conditions: human, in vivo
# [8] = human, in vivo; remark: listed apart in the source
# [9] = Group I, Dose Level 1, LD 0.25/CD 0.2 μg/kg/hr, N = 8, safety population
# [10] = Group I, Dose Level 2, LD 0.50/CD 0.4 μg/kg/hr, N = 6, safety population
# [11] = Group I, Dose Level 3, LD 1.00/CD 0.7 μg/kg/hr, N = 6, safety population
# [12] = Group I, Dose Level 4, LD 1.00/CD 2.00 μg/kg/hr, N = 6, safety population
# [13] = Group II, Dose Level 1, LD 0.25/CD 0.2 μg/kg/hr, N = 8, safety population
# [14] = Group II, Dose Level 2, LD 0.50/CD 0.4 μg/kg/hr, N = 8, safety population
# [15] = Group II, Dose Level 3, LD 1.00/CD 0.7 μg/kg/hr, N = 9, safety population
# [16] = Group II, Dose Level 4, LD 1.00/CD 2.00 μg/kg/hr, N = 8, safety population
# [17] = Dose Level 1, LD 0.25/CD 0.2 μg/kg/hr, full evaluable population
# [18] = Dose Level 2, LD 0.50/CD 0.4 μg/kg/hr, full evaluable population
# [19] = Dose Level 3, LD 1.00/CD 0.7 μg/kg/hr, full evaluable population
# [20] = Dose Level 4, LD 1.00/CD 2.00 μg/kg/hr, full evaluable population
# [21] = Table 30 key summary (mean), Dose Level 1, LD 0.25/CD 0.2 μg/kg/hr, full evaluable population
# [22] = Table 30 key summary (mean), Dose Level 2, LD 0.50/CD 0.4 μg/kg/hr, full evaluable population
# [23] = Table 30 key summary (mean), Dose Level 3, LD 1.00/CD 0.7 μg/kg/hr, full evaluable population
# [24] = Table 30 key summary (mean), Dose Level 4, LD 1.00/CD 2.00 μg/kg/hr, full evaluable population
# [25] = final population PK model, Examples 5, 3, 1 and 7
# [26] = Su et al. model, subject 7.7 months, 7 kg, total bypass time 57 minutes
# [27] = noncompartmental analysis of the adult long-term use data
# [28] = population PK of 4 pooled pediatric intensive care studies (1 week to 14 years)
# [29] = typical subject, adult population PK analysis of long-term (>24 h) use
compound,measurement,setting,value
Cc1cccc([C@H](C)c2cnc[nH]2)c1C [dexmedetomidine],Drug-related TEAE: Bradycardia,[1]; [9],0 n (%)
same,Drug-related TEAE: Hypertension,[1]; [9],0 n (%)
same,Drug-related TEAE: Hypotension,[1]; [9],0 n (%)
same,Drug-related TEAE: Sedation,[1]; [9],0 n (%)
same,Number of Drug-related TEAE,[1]; [9],0
same,Subjects with at least 1 Drug-Related TEAE,[1]; [9],0 n (%)
same,Drug-related TEAE: Bradycardia,[1]; [10],0 n (%)
same,Drug-related TEAE: Hypertension,[1]; [10],0 n (%)
same,Drug-related TEAE: Hypotension,[1]; [10],0 n (%)
same,Drug-related TEAE: Sedation,[1]; [10],0 n (%)
same,Number of Drug-related TEAE,[1]; [10],0
same,Subjects with at least 1 Drug-Related TEAE,[1]; [10],0 n (%)
same,Drug-related TEAE: Bradycardia,[1]; [11],1 (16.7) n (%)
same,Drug-related TEAE: Hypertension,[1]; [11],1 (16.7) n (%)
same,Drug-related TEAE: Hypotension,[1]; [11],0 n (%)
same,Drug-related TEAE: Sedation,[1]; [11],0 n (%)
same,Number of Drug-related TEAE,[1]; [11],2
same,Subjects with at least 1 Drug-Related TEAE,[1]; [11],1 (16.7) n (%)
same,Drug-related TEAE: Bradycardia,[1]; [12],1 (16.7) n (%)
same,Drug-related TEAE: Hypertension,[1]; [12],0 n (%)
same,Drug-related TEAE: Hypotension,[1]; [12],1 (16.7) n (%)
same,Drug-related TEAE: Sedation,[1]; [12],2 (33.3) n (%)
same,Number of Drug-related TEAE,[1]; [12],4
same,Subjects with at least 1 Drug-Related TEAE,[1]; [12],4 (66.7) n (%)
same,Drug-related TEAE: Bradycardia,[1]; [13],0 n (%)
same,Drug-related TEAE: Chills,[1]; [13],0 n (%)
same,Drug-related TEAE: Hypertension,[1]; [13],0 n (%)
same,Drug-related TEAE: Sedation,[1]; [13],0 n (%)
same,Number of Drug-related TEAE,[1]; [13],0
same,Subjects with at least 1 Drug-Related TEAE,[1]; [13],0 n (%)
same,Drug-related TEAE: Bradycardia,[1]; [14],0 n (%)
same,Drug-related TEAE: Chills,[1]; [14],0 n (%)
same,Drug-related TEAE: Hypertension,[1]; [14],0 n (%)
same,Drug-related TEAE: Sedation,[1]; [14],0 n (%)
same,Number of Drug-related TEAE,[1]; [14],0
same,Subjects with at least 1 Drug-Related TEAE,[1]; [14],0 n (%)
same,Drug-related TEAE: Bradycardia,[1]; [15],1 (11.1) n (%)
same,Drug-related TEAE: Chills,[1]; [15],1 (11.1) n (%)
same,Drug-related TEAE: Hypertension,[1]; [15],1 (11.1) n (%)
same,Drug-related TEAE: Sedation,[1]; [15],0 n (%)
same,Number of Drug-related TEAE,[1]; [15],3
same,Subjects with at least 1 Drug-Related TEAE,[1]; [15],2 (22.2) n (%)
same,Drug-related TEAE: Bradycardia,[1]; [16],0 n (%)
same,Drug-related TEAE: Chills,[1]; [16],0 n (%)
same,Drug-related TEAE: Hypertension,[1]; [16],3 (37.5) n (%)
same,Drug-related TEAE: Sedation,[1]; [16],1 (12.5) n (%)
same,Number of Drug-related TEAE,[1]; [16],4
same,Subjects with at least 1 Drug-Related TEAE,[1]; [16],4 (50.0) n (%)
same,treatment-related TEAE: chills,"[1]; human, in vivo",1 subjects
same,treatment-related TEAE: hypotension,"[1]; human, in vivo",1 subjects
same,deaths,[1]; safety population,No deaths
same,Css Mean,[17],402.026 µg/mL
same,Css Median,[17],197.991 µg/mL
same,λz Mean,[17],0.469 h⁻¹
same,λz Median,[17],0.446 h⁻¹
same,Css Mean,[18],539.848 µg/mL
same,Css Median,[18],513.902 µg/mL
same,λz Mean,[18],0.408 h⁻¹
same,λz Median,[18],0.411 h⁻¹
same,Css Mean,[19],1347.284 µg/mL
same,Css Median,[19],947.907 µg/mL
same,λz Mean,[19],0.369 h⁻¹
same,λz Median,[19],0.386 h⁻¹
same,Css Mean,[20],2827.144 µg/mL
same,Css Median,[20],2665.409 µg/mL
same,λz Mean,[20],0.360 h⁻¹
same,λz Median,[20],0.326 h⁻¹
same,Css,[21],0.402 ng/mL
same,λz,[21],0.5 h⁻¹
same,Css,[22],0.5398 ng/mL
same,λz,[22],0.4 h⁻¹
same,Css,[23],1.3473 ng/mL
same,λz,[23],0.4 h⁻¹
same,Css,[24],2.8271 ng/mL
same,λz,[24],0.4 h⁻¹
same,Css,"human, in vivo",5.74355e+09 ng/mL
same,dose proportionality of AUC and Cmax,"human, in vivo",dose proportionality and a linear relationship
same,pKa,[2],7
same,solubility in water,[2],freely soluble in water
same,pH of the isotonic solution,[2]; study drug as supplied,4.5
same,"t1/2, Mean",[3],2.260 h
same,"Magnitude of Interindividual Variability in Vc, final estimate",[4]; final population PK model,53.76 % CV
same,Exponent for power function effect of age on Q (population mean),[4]; [25],−0.342
same,Exponent for power function effect of age on Vp (population mean),[4]; [25],−0.280
same,Inter-compartmental CL (Q) (population mean),[4]; [25],63.5 L/h
same,"Vc, volume of the central compartment (population mean)",[4]; [25],8.49 L
same,"Vp, volume of the peripheral compartment (population mean)",[4]; [25],14.7 L
same,"Magnitude of Interindividual Variability in CL, final estimate","[4]; final population PK model, cell spans CL rows",37.01 % CV
same,"Magnitude of Interindividual Variability in Q, final estimate","[4]; final population PK model, cell spans Q rows",161.25 % CV
same,"Magnitude of Interindividual Variability in Vp, final estimate","[4]; final population PK model, cell spans Vp rows",51.19 % CV
same,"CL, Predicted Typical Value",[4]; 1 month-<6 months,7.51 L/h
same,"Volume of Distribution, Predicted Typical Value",[4]; 1 month-<6 months,18.75 L
same,"Weight-Adjusted CL, Predicted Typical Value",[4]; 1 month-<6 months,20.9 mL/min/kg
same,"Weight-Adjusted V, Predicted Typical Value",[4]; 1 month-<6 months,3.133 L/kg
same,"CL, Predicted Typical Value",[4]; 2 y-<6 y,14.01 L/h
same,"Volume of Distribution, Predicted Typical Value",[4]; 2 y-<6 y,28.09 L
same,"Weight-Adjusted CL, Predicted Typical Value",[4]; 2 y-<6 y,16.98 mL/min/kg
same,"Weight-Adjusted V, Predicted Typical Value",[4]; 2 y-<6 y,2.043 L/kg
same,"CL, Predicted Typical Value",[4]; 6 months-<12 months,8.69 L/h
same,"Volume of Distribution, Predicted Typical Value",[4]; 6 months-<12 months,19.95 L
same,"Weight-Adjusted CL, Predicted Typical Value",[4]; 6 months-<12 months,19.92 mL/min/kg
same,"Weight-Adjusted V, Predicted Typical Value",[4]; 6 months-<12 months,2.742 L/kg
same,"CL, Predicted Typical Value",[4]; 6 y-<17 y,25.27 L/h
same,"Volume of Distribution, Predicted Typical Value",[4]; 6 y-<17 y,52.97 L
same,"Weight-Adjusted CL, Predicted Typical Value",[4]; 6 y-<17 y,14 mL/min/kg
same,"Weight-Adjusted V, Predicted Typical Value",[4]; 6 y-<17 y,1.754 L/kg
same,"CL, Predicted Typical Value",[4]; 12 months-<24 months,11.12 L/h
same,"Volume of Distribution, Predicted Typical Value",[4]; 12 months-<24 months,23.85 L
same,"Weight-Adjusted CL, Predicted Typical Value",[4]; 12 months-<24 months,18.35 mL/min/kg
same,"Weight-Adjusted V, Predicted Typical Value",[4]; 12 months-<24 months,2.361 L/kg
same,"CL, Predicted Typical Value",[4]; 28 weeks GA-<1 month,2.69 L/h
same,"Volume of Distribution, Predicted Typical Value",[4]; 28 weeks GA-<1 month,16.21 L
same,"Weight-Adjusted CL, Predicted Typical Value",[4]; 28 weeks GA-<1 month,15.6 mL/min/kg
same,"Weight-Adjusted V, Predicted Typical Value",[4]; 28 weeks GA-<1 month,5.618 L/kg
same,subjects with treatment-emergent adverse events,[5]; human,20.0%
same,safety and tolerability,[5],safe and well tolerated
same,power-model slope (95% confidence interval) for AUC0-inf,[6]; human,"1.263 (0.820, 1.706)"
same,power-model slope (95% confidence interval) for Cmax,[6]; human,"0.898 (0.652, 1.143)"
same,pharmacokinetic linearity / dose proportionality,[6],linearity and dose proportionality
same,CL,[7]; [26],7.26 L/h
same,Q,[7]; [26],24.1 L/h
same,Vc,[7]; [26],8.4 L
same,Vp,[7]; [26],10.2 L
same,CL,[7]; [27],39.4 L/h
same,volume of distribution,[7]; [27],152 L
same,CL standardized to a 70-kg adult,[7]; [28],42.1 L/h
same,volume of distribution standardized to a 70-kg adult,[7]; [28],125.3 L
same,volume of distribution,[7]; product label for Precedex,118 L
same,CL,"[7]; product label for Precedex, mean body weight 72 kg",39 L/h
same,CL,[7]; [29],35.8 L/h
same,volume of distribution,[7]; [29],112.7 L
same,Tmax,clinical; after the start of the maintenance infusion,0.68 h
same,Tmax,clinical; before the end of the loading dose,~0.08 h
same,clearance,clinical; clearance,~95 mL/min
same,half-life,clinical; half-life,~2 h
same,half-life,"clinical; t1/2, Mean",1.96 h
same,clearance,clinical; weight adjusted CL,~10 mL/min/kg
same,Vd,clinical; weight adjusted Vd,~1.6 L/kg
same,"CL, predicted",[8],47.8 L/h
same,"Exponent of power relationship between Q and age, Population Mean",[8],−0.509
same,IIV in Q,[8],117 % CV
same,"Proportional shift in allometric exponent for Vc for neonates, Population Mean",[8],0.513
same,"Q, model value",[8],68.21 L/h
same,"Slope of linear age effect on Vp, Population Mean",[8],−1.43 L/y
same,"Vc, model value",[8],6.22 L
same,"Vp, model value",[8],13.21 L
same,"interindividual variability in CL, Vc, and Vp",[8],35-55 % CV
same,terminal elimination (β) half-life,[8],1.8 h
same,unexplained interindividual variability (IIV) in Q,[8],163 % CV
same,"volume of distribution, predicted",[8],114.6 L
